Assay results as given in patent publication EP2157088A1, “INDICYANINE DYES AND THE DERIVATIVES THEREOF FOR ANALYSING BIOLOGICAL MICROMOLECULES” (UCHREZHDENIE ROSSIISKOI AKADEMII NAUK INSTITUT …, priority 2007, dated 2008).
Where a name gives a salt, the structure may show the parent alone.

Experiments:
Assay type in all cases: physicochemical
[1] = Quantum efficiency of fluorescence, measured versus a reference dye
Experimental: For all indodicarbocyanine dyes (I) (A1) - (A30) and (B1) - (B7) of the invention, there are determined the quantum efficiency of fluorescence in methanol and in aqueous phosphate buffered saline (Table 1, Fig. 3). The measurements are performed versus dyes of formula (I) (R1= -CH3, R2= R6= -SO3^-; R3= -(CH2)5COOH, R4= -C2H5, R5= -H) whose quantum efficiency of fluorescence in PBS is 0.27 (Mader O., K. Reider, H.-J. Egelhaaaf, R, Fischer, R. Brock, Structure Properties of Pentamethine Indocyanine Dyes: Identification of New Dyes for Life Science Applications. Bioconjugate Chem, 2004, vol. 15, pp. 70-78). In methanol, dyes (A10, A22, A25, A29, A30) have the upper-range of quantum efficiency of fluorescence (Φ ∼ 0.3), but in PBS, dyes (A10, A22, A25, A29, A30) have the maximal Φ -value.

[2] = Relative efficiency of fluorescence / absolute sensitivity of label, normalized to dye A30 in PBS; conditions: for Sensitivity of record 655/ 690: excitation 655 nm, record 690 nm; for Sensitivity of record 635/ 670: excitation 635 nm, record 670 nm; for Sensitivity of record max/ max: excitation and record in absorption and fluorescence maxima, ε*Φ normalized to A30 in PBS
Source text: The data obtained were as follows: • on excitation and record in absorption and fluorescence maxima, the relative efficiency of fluorescence exceeds 0.80 for dyes (A10), (A22), (A23), (A25), and (A30) in methanol and for dyes (A22), (A25), and (A30) in PBS (Table 1, Fig. 4), whereas for dyes of formula (I) (R1 = -CH3, R2= R6= -SO3^-; R3= -(CH2)5COOH, R4= -C2H5; R5= -H) the values are 0.69 in methanol and 0.67 in PBS; • on excitation at wavelength 655 nm and record at 690 nm, the relative efficiency of fluorescence exceeds 0.25 for dyes (A25) and (A30) in methanol and is higher than 0.18 for dyes (A24) and (A30) in PBS (Table 1, Fig. 5), whereas for dyes of formula (I) (R1 = -CH3, R2 = R6= -SO3^-; R3= -(CH2)5COOH, R4= -C2H5; R5= -H) the values are 0.18 in methanol and 0.11 in PBS; • on excitation at wavelength 635 nm and record at 670 nm, the relative efficiency of fluorescence exceeds 0.50 for dyes (A1), (A11), (A23) in methanol and is higher than 0.45 for dyes (A22), (A25), and (A30) in PBS (Table 1, Fig. 6), whereas for dyes of formula (I) (R1= -CH3, R2= R6= -SO3^-; R3= -(CH2)5COOH, R4= -C2H5; R5= -H) the values are 0.44 in methanol and 0.38 in PBS.
Term sensitivity of fluorescent analysis is defined by the absolute sensitivity of label that may be represented as the product of molar extinction coefficient by quantum efficiency of fluorescence (ε*Φ). Thus, there are determined the absolute sensitivity of indodicarbocyanines (A1-A30, B1-B7) in appropriate absorption and fluorescence maxima in methanol and in aqueous phosphate buffered saline. The values are normalized to the maximal value obtained for dye (A30) in PBS (Table 1). In methanol, dyes (A10, A22, A23, A25, A30) have the upper-range of absolute sensitivity, but in PBS, dyes (A10, A22, A25, A29, A30) have the maximal values of sensitivity (Fig. 4).
To determine the most appropriate dyes for instrument setting, there are measured the relative efficiency of fluorescence of dyes at wavelength of excitation and record of the instrument (655 nm. / 690 nm). The maximal values appear to be specific to dyes (A25) and (A30) in methanol, and to dyes (A19, A22, A25, A29, A30) in PBS (Table 1, Fig. 5).
There are also measured the relative efficiency of fluorescence at wavelength of excitation and record of the instrument (635 nm / 670 nm). The maximal values appear to be specific to dyes (A1, A10, A11, A23) in methanol, and to dyes (A10, A22, A25, A29, A30) in PBS (Table 1, Fig. 6).

[3] = Molar extinction coefficient in methanol and PBS
Experimental: For all indodicarbocyanine dyes (I) (A1) - (A30) and (B1) - (B7) of the invention, there are determined the molar extinction coefficients in methanol and in aqueous phosphate buffered saline (PBS) (10 mM potassium phosphate buffer, sodium chloride concentration is 0.9%, pH 7.4). In methanol, indodicarbocyanine (A1, A8, A10-A12, A17, A23) has the upper-range of molar extinction coefficient (ε >[…]). In aqueous phosphate buffered saline (PBS), dyes (A10, A23, A30) have the maximal ε-value (Fig. 2).

Φ (quantum efficiency of fluorescence) ([1]; MeOH) | Sensitivity of record 655/ 690 ([2]; PBS) | Φ (quantum efficiency of fluorescence) ([1]; PBS) | further results | Compound
0.19 | – | – | – | Cc1ccc2c(c1)C(C)(C)C(=CC=CC=CC1=[N+](CCCCS(=O)(=O)[O-])c3ccc(CCC(=O)O)cc3C1(C)C)N2CCCCS(=O)(=O)[O-].[Na+] [B4, N,N'-disulfobutyl-5-carboxyethyl-3,3,3',3',5'-pentamethylindodicarbocyanine, sodium salt]
– | maximal | – | – | CC[N+]1=C(/C=C/C=C/C=C2/N(CCCCS(=O)(=O)O)c3ccc(S(=O)(=O)[O-])cc3C2(C)CCCCC(=O)O)C(C)(C)c2cc(S(=O)(=O)O)ccc21 (stereo not drawn) [A25, 5,5'-disulfo-3-(4-carboxybutyl)-N-(4-sulfobutyl)-3,3',3'-trimethyl-N'-ethylindodicarbocyanine, disodium salt]
– | – | – | molar extinction coefficient (ε) ([3]; in aqueous phosphate buffered saline (PBS)): maximal | CC1(C)C(/C=C/C=C/C=C2/N(CCCCS(=O)(=O)O)c3ccccc3C2(C)CCCCC(=O)O)=[N+](CCCCS(=O)(=O)O)c2ccc(S(=O)(=O)[O-])cc21 (stereo not drawn) [A23, N,N'-di(4-sulfobutyl)-3-(4-carboxybutyl)-5'-sulfo-3,3',3'-trimethylindodicarbocyanine, disodium salt]
– | maximal | maximal | Sensitivity of record 635/ 670 ([2]; PBS): maximal; Sensitivity of record max/ max ([2]; PBS): maximal | CCN1/C(=C/C=C/C=C/C2=[N+](CCCCS(=O)(=O)O)c3ccc(S(=O)(=O)O)cc3C2(C)C)C(C)(CCCCC(=O)O)c2cc(S(=O)(=O)[O-])ccc21 (stereo not drawn) [A29, 5,5'-disulfo-3-(4-carboxybutyl)-N'-(4-sulfobutyl)-3,3';3'-trimethyl-N-ethylindodicarbocyanine, disodium salt]
– | – | – | molar extinction coefficient (ε) ([3]; in methanol): > 220000 M⁻¹ cm⁻¹ | Cc1ccc2c(c1)C(C)(CCCCC(=O)O)C(C=CC=CC=C1N(CCCCS(=O)(=O)[O-])c3ccccc3C1(C)C)=[N+]2CCCCS(=O)(=O)[O-].[Na+] (stereo not drawn) [A17, N,N'-di(4-sulfobutyl)-3-(4-carboxybutyl)-3,3',3',5-tetramethylindodicarbocyanine, sodium salt]
~0.3 | maximal | maximal | – | CCN1C(=CC=CC=CC2=[N+](CC)c3ccc(S(=O)(=O)[O-])cc3C2(C)CCCCC(=O)O)C(C)(C)c2cc(S(=O)(=O)[O-])ccc21.[Na+] (stereo not drawn) [A22, 5,5'-disulfo-N,N'-diethyl-3-(4-carboxybutyl)-3,3',3'-trimethylindodicarbocyanine, sodium salt]
– | higher than 0.18 | – | – | CC1(C)C(=CC=CC=CC2=[N+](CCCCS(=O)(=O)[O-])c3ccc(S(=O)(=O)[O-])cc3C2(C)CCCCC(=O)O)N(CCCCS(=O)(=O)[O-])c2ccccc21.[Na+].[Na+] (stereo not drawn) [A24, N,N'-di(4-sulfobutyl)-3-(4-carboxybutyl)-5-sulfo-3,3',3'-trimethylindodicarbocyanine, disodium salt]
~0.3 | – | maximal | Sensitivity of record 635/ 670 ([2]; MeOH): maximal; Sensitivity of record 635/ 670 ([2]; PBS): maximal; Sensitivity of record max/ max ([2]; PBS): maximal | CC1(C)C(C=CC=CC=C2N(CCCCS(=O)(=O)O)c3ccccc3C2(C)CCCCC(=O)O)=[N+](CCCCS(=O)(=O)[O-])c2ccccc21 (stereo not drawn) [A10, N,N'-di(4-sulfobutyl)-3-(4-carboxybutyl)-3,3',3'-trimethylindodicarbocyanine, sodium salt]
– | maximal | – | – | Cc1ccc2c(c1)C(C)(C)C(=CC=CC=CC1=[N+](CCCCS(=O)(=O)[O-])c3ccc(C)cc3C1(C)CCCCC(=O)O)N2CCCCS(=O)(=O)[O-].[Na+] (stereo not drawn) [A19, N,N'-di(4-sulfobutyl)-3-(4-carboxybutyl)-3,3',3',5,5'-pentamethylindodicarbocyanine, sodium salt]
